Results on 7 compounds are retold here after patent US6288119A, “11,15-O-dialkylprostaglandin E derivatives, process for producing the same, and drugs containing the same as the active ingredient” (Ono Pharmaceuticals Co., Ltd., priority 1997, dated 2001).

The Ki is a measure of affinity in units of concentration, obtained from inhibition or displacement.

Assay [1] deals with T1, mouse EP1 (Mus musculus, UniProt P35375).
T1 construct: expressed in transfected cells; host or cells: CHO cells
T1 sequence (P35375 1-405): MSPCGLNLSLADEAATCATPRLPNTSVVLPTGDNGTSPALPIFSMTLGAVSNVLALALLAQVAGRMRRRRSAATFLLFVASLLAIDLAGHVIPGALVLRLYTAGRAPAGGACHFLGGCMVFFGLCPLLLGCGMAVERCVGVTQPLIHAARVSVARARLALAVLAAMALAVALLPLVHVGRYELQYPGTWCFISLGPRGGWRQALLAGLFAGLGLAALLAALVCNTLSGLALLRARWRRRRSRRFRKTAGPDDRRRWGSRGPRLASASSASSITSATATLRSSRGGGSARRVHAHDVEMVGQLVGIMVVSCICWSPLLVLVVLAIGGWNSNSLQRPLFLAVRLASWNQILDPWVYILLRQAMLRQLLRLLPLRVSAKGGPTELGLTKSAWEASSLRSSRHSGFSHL
Nature of the assay: Binding assay using expression cell of prostanoids receptor subtype, EP1 ([3H]-PGE2 binding inhibition, CHO membrane fraction). To be noted: 2.5 nM [3H]-PGE2, 1 hour at room temperature, pH 6.0, read-out: Dissociation Constant Ki, EP1. The procedure: (§1) (i) Binding assay using expression cell of prostanoids receptor subtype
(§2) The preparation of membrane fraction was carried out according to the method of Sugimoto et al. [J. Biol. Chem., 267, 6463-6466 (1992)], using expression CHO cell of the prostanoids receptor subtype (mouse EP1, EP2, EP3α, EP4).
(§3) The standard assay mixture containing membrane fraction (0.5 mg/ml), and [3H]-PGE2 in a final volume of 200 μl was incubated for 1 hour at room temperature. The reaction was terminated by addition of 3 ml of ice-cooled buffer. The mixture was filtered through a GF/B glass filter under reduced pressure. The radioactivity associated with the filter was measured by liquid scintillation counting.
(§4) Kd and Bmax values were determined from Scatchard plots [Ann. N.Y. Acad. Sci., 51, 660 (1949)]. Non-specific binding was calculated as the binding in the presence of an excess (2.5 μM) of unlabeled PGE2. In the measurement of 3H-PGE2 binding inhibitory activity, 2.5 nM of [3H]-PGE2 and various concentrations of the compounds of the present invention were added. The following buffer was used in all reactions.
(§5) Buffer; 10 mM potassium phosphate (pH 6.0), 1 mM EDTA, 10 mM MgCl2, 0.1 M NaCl.
(§6) The dissociation constant Ki (μM) of each compound was calculated by the following equation.

The target in assay [2] is T2, mouse EP3α (Mus musculus, UniProt P30557).
T2 construct: expressed in transfected cells; host or cells: CHO cells
T2 sequence (P30557 1-365): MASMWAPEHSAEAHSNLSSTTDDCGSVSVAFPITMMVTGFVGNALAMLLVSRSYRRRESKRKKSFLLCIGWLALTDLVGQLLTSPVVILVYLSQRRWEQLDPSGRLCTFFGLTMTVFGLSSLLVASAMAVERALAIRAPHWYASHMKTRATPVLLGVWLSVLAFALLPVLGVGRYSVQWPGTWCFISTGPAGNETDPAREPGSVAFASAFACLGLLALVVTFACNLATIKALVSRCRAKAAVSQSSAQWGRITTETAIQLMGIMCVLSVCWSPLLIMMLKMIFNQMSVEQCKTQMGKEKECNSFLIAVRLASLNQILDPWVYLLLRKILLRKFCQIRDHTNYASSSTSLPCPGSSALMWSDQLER
The experiment in a line: Binding assay using expression cell of prostanoids receptor subtype, EP3α ([3H]-PGE2 binding inhibition, CHO membrane fraction). The conditions noted are these: 2.5 nM [3H]-PGE2, 1 hour at room temperature, pH 6.0, read-out: Dissociation Constant Ki, EP3α. The procedure: as §1, §2, §3, §4, §5, §6

Assay [3] deals with T3, mouse EP2 (Mus musculus, UniProt Q62053).
T3 construct: expressed in transfected cells; host or cells: CHO cells
T3 sequence (Q62053 whole entry): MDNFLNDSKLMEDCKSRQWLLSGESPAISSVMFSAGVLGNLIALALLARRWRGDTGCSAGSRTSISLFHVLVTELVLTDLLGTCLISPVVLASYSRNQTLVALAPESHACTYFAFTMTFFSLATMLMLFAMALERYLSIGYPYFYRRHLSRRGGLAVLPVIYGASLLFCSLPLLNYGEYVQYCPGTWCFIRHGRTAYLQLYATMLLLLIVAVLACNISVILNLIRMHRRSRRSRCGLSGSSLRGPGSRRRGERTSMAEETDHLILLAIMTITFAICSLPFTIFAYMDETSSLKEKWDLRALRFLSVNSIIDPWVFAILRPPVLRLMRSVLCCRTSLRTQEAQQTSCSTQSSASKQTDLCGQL
The experiment in a line: Binding assay using expression cell of prostanoids receptor subtype, EP2 ([3H]-PGE2 binding inhibition, CHO membrane fraction). The conditions noted are these: 2.5 nM [3H]-PGE2, 1 hour at room temperature, pH 6.0, read-out: Dissociation Constant Ki, EP2. The procedure:
as §1, §2, §3, §4, §5, §6

The target of assay [4] is T4, mouse EP4 (Mus musculus, UniProt P32240).
T4 construct: expressed in transfected cells; host or cells: CHO cells
T4 sequence (P32240 whole entry): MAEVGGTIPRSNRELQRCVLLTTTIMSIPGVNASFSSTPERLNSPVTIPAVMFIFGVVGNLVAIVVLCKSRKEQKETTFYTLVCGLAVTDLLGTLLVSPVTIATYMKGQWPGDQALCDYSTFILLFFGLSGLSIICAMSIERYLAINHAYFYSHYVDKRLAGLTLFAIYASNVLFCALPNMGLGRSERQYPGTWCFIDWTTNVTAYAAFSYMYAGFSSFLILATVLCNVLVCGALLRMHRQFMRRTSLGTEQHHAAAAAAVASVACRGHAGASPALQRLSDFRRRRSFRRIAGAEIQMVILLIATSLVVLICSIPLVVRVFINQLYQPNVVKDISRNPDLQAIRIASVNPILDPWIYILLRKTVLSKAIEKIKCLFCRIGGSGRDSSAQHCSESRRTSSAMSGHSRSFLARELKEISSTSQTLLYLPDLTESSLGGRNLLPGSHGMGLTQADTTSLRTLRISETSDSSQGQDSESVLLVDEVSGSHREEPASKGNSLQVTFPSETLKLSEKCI
The experiment in a line: Binding assay using expression cell of prostanoids receptor subtype, EP4 ([3H]-PGE2 binding inhibition, CHO membrane fraction). To be noted: 2.5 nM [3H]-PGE2, 1 hour at room temperature, pH 6.0, read-out: Dissociation Constant Ki, EP4. The procedure:
as §1, §2, §3, §4, §5, §6

Consider `COC(/C=C/[C@H]1[C@H](OC)CC(=O)[C@@H]1C/C=C\CCCC(=O)O)COc1ccccc1` (stereo partly drawn) [1(f), 11α,15α-Dimethoxy-9-oxo-16-phenoxy-17,18,19,20-tetranorprosta-5Z,13E-dienoic acid], for which the Ki in assay [1] was 310 nM; in assay [2], 2.9 nM; in assay [3], more than 10000 nM; in assay [4] it was more than 10000 nM.
As to `CCCCC[C@@H](/C=C/[C@H]1[C@H](OC)CC(=O)[C@@H]1C/C=C\CCCC(=O)O)OC` [Example 1, 11α,15α-Dimethoxy-9-oxoprosta-5Z,13E-dienoic acid], the Ki in assay [1] was more than 10000 nM; in assay [2], 3.6 nM; in assay [3], 2400 nM; in assay [4] it was 4200 nM.
In the same order, the values of `CCCCCC[C@@H](/C=C/[C@H]1[C@H](OC)CC(=O)[C@@H]1C/C=C\CCCC(=O)O)OC` [1(e), 11α,15α-Dimethoxy-9-oxo-20-methylprosta-5Z,13E-dienoic acid] are 2400 nM, 6.1 nM, 1300 nM and 3700 nM.
Taken in the same sequence, the figures for `CCCCC[C@@H](/C=C/[C@H]1[C@H](OCC)CC(=O)[C@@H]1C/C=C\CCCC(=O)O)OCC` [Example 2, 11α,15α-Diethoxy-9-oxoprosta-5Z,13E -dienoic acid] were more than 10000 nM, 40 nM, 600 nM and 5900 nM.
Consider `CCCCC[C@@H](/C=C/[C@@H]1[C@@H](C/C=C\CCCC(=O)O)[C@H](Cl)C[C@H]1OC)OC` [1(h), 11α,15α-Dimethoxy-9β-chloroprosta-5Z,13E-dienoic acid], for which the Ki amounted to 39 nM in assay [1], 1.7 nM in assay [2], 34 nM in assay [3] and 73 nM in assay [4].
In the same order, the values of `CCCCC(C)(C)[C@@H](/C=C/[C@H]1[C@H](OC)CC(=O)[C@@H]1C/C=C\CCCC(=O)O)OC` [1(b), 11α,15α-Dimethoxy-9-oxo-16,16-dimethylprosta-5Z,13E-dienoic acid] are 970 nM, 2.7 nM, 530 nM and 2500 nM.
In the same order, the values of `CCCCC[C@@H](/C=C/[C@H]1[C@H](OC)CC(=O)[C@@H]1CCCCCCC(=O)O)OC` [1(a), 11α,15α-Dimethoxy-9-oxoprosta-13E-enoic acid] are more than 10000 nM, 6.3 nM, 1100 nM and 1300 nM.
